What was measured:
Assay type in all cases: in vivo
[1] = test system: Sphaerotheca fuliginea; assay: Controlling effect on Sphaerotheca fuliginea by foliage application (pot experiment); conditions: foliage spray on cucumber (cv. TSUKUBASHIROIBO) first leaves, infected area after 10 days in greenhouse at 20° C.
How it was run: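 First leaves of cucumber seedlings, 2-3 weeks old, were sprayed with compound (DMF solution diluted in water with spreader). They were inoculated 24 h later with a Sphaerotheca fuliginea conidia spray and kept 10 days at 20° C in a greenhouse. Percent control was calculated from infected leaf area.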

[2] = test system: Erysiphe graminis f. sp. tritici; assay: Controlling effect on Erysiphe graminis f. sp. tritici by foliage application (pot experiment); conditions: foliage spray on wheat (cv. NORIN No. 61) seedlings, infected area after 10 days in greenhouse at 20° C.
How it was run: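 Wheat seedlings (cv. NORIN No. 61, 2-3 weeks old) sprayed with compound in DMF diluted in water with spreader, then inoculated with conidia 24 hours later. Kept in greenhouse at 20 °C for 10 days; percent control calculated from infected leaf area.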

[3] = test system: Pyricularia oryzae; conditions: foliage spray on rice seedlings (cv. […]), number of lesions six days after the inoculation
[4] = test system: Botrytis cinerea; assay: Controlling effect on Botrytis cinerea by foliage application (pot experiment); conditions: foliage spray on cucumber (cv. TSUKUBASHIROIBO) first leaves, mycelial disks, lesion diameter after 3 days in moist chamber at 20° C.
Experimental: The following Test Examples illustrate the effects of the fungicide of the present invention. (I. Controlling effects on various plant diseases by foliage application (pot experiment)) A test compound was dissolved in a small amount of N,N-dimethylformamide, and the solution was diluted to a given concentration with distilled water containing a spreader. Thus, a liquid sample to be tested was prepared. The liquid sample was sprayed to test plants, and 24 hours thereafter, pathogens were inoculated by the method described below. […] The seeds of cucumber ([…]) were sown in plastic cups (each 9 cm in diameter), followed by cultivation for 2 to 3 weeks. The test compound in the form of a solution or suspension was sprayed to the surface of their first leaves, and mycelial disks (4 mm φ) of Botrytis cinerea cultured on the potato sucrose agar medium were put on the leaf surfaces to inoculate. the cucumber seedlings with the pathogen. The plants were kept in a moist chamber at 20° C. for 3 days. The diameter of the lesions on the leaves was measured and the percent control was calculated.

[5] = test system: Pseudoperonospora cubensis; assay: Controlling effect on Pseudoperonospora cubensis by foliage application (pot experiment); conditions: foliage spray on cucumber (var. TSUKUBASHIROIBO) first leaves, lesion area after 10 days in moist chamber at 20° C.
How it was run: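 Cucumber plants grown 2–3 weeks were sprayed on first leaves with compound (DMF solution diluted in water with spreader); 24 h later, Pseudoperonospora cubensis zoosporangia suspension dropped on leaves. Plants held in moist chamber at 20° C for 10 days; lesion area observed and percent control calculated.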

[6] = test system: Puccinia coronata; assay: Controlling effect on Puccinia coronata by foliage application (pot experiment); conditions: foliage spray on oat (cv. PC-38) seedlings, infected area after 1 day moist chamber and 8 days greenhouse at 20° C.
Experimental: The following Test Examples illustrate the effects of the fungicide of the present invention. (I. Controlling effects on various plant diseases by foliage application (pot experiment)) A test compound was dissolved in a small amount of N,N-dimethylformamide, and the solution was diluted to a given concentration with distilled water containing a spreader. Thus, a liquid sample to be tested was prepared. The liquid sample was sprayed to test plants, and 24 hours thereafter, pathogens were inoculated by the method described below. […] The seeds of oat (cv.: PC-38) were sown in plastic cups (each 9 cm in diameter), followed by cultivation for 2 to 3 weeks. The test compound in the form of a solution or suspension was sprayed to the seedlings. Spores of Puccinia coronata cultured on oat leaves were collected, diluted about 10-fold with talc, and sprayed to the test plants to inoculate the plants with the pathogen. After the inoculation, the plants were kept in a moist chamber at 20° C. for 1 day and then in a greenhouse at 20° C. for 8 days. The infected area on the leaf was observed, and the percent control was calculated.

Structure (SMILES) | Controlling effect on Sphaerotheca fuliginea by foliage application at 500 ppm (percent control) [1] | Controlling effect on ErYsiphe graminis f. sp. tritici by foliage application at 500 ppm (percent control) [2] | Controlling effect on PYricularia orYzae by foliage application at 500 ppm (percent control) [3] | Controlling effect on Botrytis cinerea by foliage application at 500 ppm (percent control) [4] | Controlling effect on Pseudoperonospora cubensis by foliage application at 500 ppm (percent control) [5] | Controllng effect on Puccinia coronata by foliage application at 500 ppm (percent control) [6]
CON=C(c1ccon1)c1ccccc1COc1ccc(C)cc1 (mixture of isomers) [compound 314] | 100 percent control | 70 percent control | 90 percent control | 70 percent control | 100 percent control | –
CON=C(c1ccccc1COc1ccc(Cl)c(Cl)c1)c1nccn1C (single isomer, unassigned) [132A] | 100 percent control | 70 percent control | 70 percent control | 70 percent control | 100 percent control | –
CON=C(c1ncon1)c1ccccc1COc1ccccc1 [compound 801] | 100 percent control | 90 percent control | 70 percent control | – | 100 percent control | 97 percent control
CON=C(c1cc(C)no1)c1ccccc1COc1ccc(Cl)cc1 (single isomer, unassigned) [607A] | 90 percent control | 90 percent control | 90 percent control | 70 percent control | 97 percent control | –
CON=C(c1ccccc1COc1cccc(Cl)c1)c1nccn1C (single isomer, unassigned) [106A] | 100 percent control | 70 percent control | 97 percent control | 70 percent control | 100 percent control | –
CON=C(c1ccccc1COc1ccc(Cl)cc1Cl)c1nccn1C (single isomer, unassigned) [130A] | 100 percent control | – | – | 70 percent control | 100 percent control | –
CON=C(c1cc(C)no1)c1ccccc1COc1ccccc1Cl (single isomer, unassigned) [605A] | 100 percent control | 90 percent control | 90 percent control | 70 percent control | 100 percent control | –
CON=C(c1nnco1)c1ccccc1COc1cccc(C)c1 [compound 713] | 100 percent control | 90 percent control | 97 percent control | 70 percent control | 100 percent control | –
CON=C(c1ccccc1COc1ccccc1C)c1nccn1C (single isomer, unassigned) [112A] | 100 percent control | 100 percent control | 97 percent control | – | 97 percent control | 100 percent control
CON=C(c1nnco1)c1ccccc1COc1cccc(C(F)(F)F)c1 [compound 722] | 100 percent control | 90 percent control | 90 percent control | – | 100 percent control | 97 percent control
CON=C(c1ccccc1COc1cccc(C(F)(F)F)c1)c1nccn1C (single isomer, unassigned) [122A] | 100 percent control | 97 percent control | 97 percent control | 70 percent control | 100 percent control | –
CON=C(c1ccccc1COc1ccc(Cl)cc1C)c1nccn1C (single isomer, unassigned) [141A] | 100 percent control | 90 percent control | 70 percent control | 90 percent control | 100 percent control | –
CON=C(c1ccccc1COc1ccc(-c2ccccc2)cc1)c1nccn1C (single isomer, unassigned) [144A] | 100 percent control | – | – | 70 percent control | 100 percent control | –
CON=C(c1nnco1)c1ccccc1COc1ccc(Cl)c(Cl)c1 [compound 732] | 100 percent control | 70 percent control | 70 percent control | 70 percent control | 100 percent control | –
CON=C(c1ccno1)c1ccccc1COc1cc(C)ccc1C (single isomer, unassigned) [536B] | 90 percent control | 100 percent control | 70 percent control | – | 100 percent control | 97 percent control

Reference: US6362212B1, “Oxime derivative and bactericide containing the same as active ingredient” (Shionogi & Company, Ltd., priority 1994, dated 2002)
